From ChEMBL document CHEMBL1201862, “PubChem BioAssay data set” (2004)
The source made the active and inactive calls.

Key:
Genome polyprotein = Genome polyprotein (dengue virus type 2, UniProt P29990); assay: Dengue-2 NS5 methyltransferase inhibitors, primary screen, biochemical, confirmation dose response (AID 588689); type: functional
[1] = target: T1, Rac GTPase-activating protein 1 (Homo sapiens, UniProt Q9H0H5); assay: MgcRacGAP GTPase-activating activity inhibitors, confirmation, biochemical, ADP Hunter fluorescence, primary and confirmatory (AID 624330); type: functional
T1 sequence (Q9H0H5 whole entry): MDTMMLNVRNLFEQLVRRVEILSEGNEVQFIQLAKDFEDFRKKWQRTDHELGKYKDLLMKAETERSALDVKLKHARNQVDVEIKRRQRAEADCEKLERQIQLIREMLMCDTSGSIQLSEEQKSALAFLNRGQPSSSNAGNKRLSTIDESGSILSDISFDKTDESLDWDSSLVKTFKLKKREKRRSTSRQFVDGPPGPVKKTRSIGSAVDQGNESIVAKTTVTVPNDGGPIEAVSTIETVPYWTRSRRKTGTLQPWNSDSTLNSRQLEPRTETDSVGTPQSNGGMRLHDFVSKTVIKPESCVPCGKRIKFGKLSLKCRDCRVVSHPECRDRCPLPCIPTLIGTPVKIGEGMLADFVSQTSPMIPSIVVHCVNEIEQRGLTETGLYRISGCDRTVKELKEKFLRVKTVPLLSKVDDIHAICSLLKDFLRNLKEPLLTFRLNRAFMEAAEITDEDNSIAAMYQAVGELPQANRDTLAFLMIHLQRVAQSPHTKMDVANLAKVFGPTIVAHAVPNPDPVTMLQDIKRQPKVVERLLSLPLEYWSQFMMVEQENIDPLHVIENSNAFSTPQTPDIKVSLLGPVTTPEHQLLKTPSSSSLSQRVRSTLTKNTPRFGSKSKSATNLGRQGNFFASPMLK

[2] = target: Envelope glycoprotein gp160 (Human immunodeficiency virus 1, UniProt Q6QLK5); assay: inhibitors of HIV fusion peptide binding, primary screen, biochemical, uHTS, fluorescence dequenching (AID 1986)
Sequence of Envelope glycoprotein gp160 (Q6QLK5 whole entry, the tested form may be a part): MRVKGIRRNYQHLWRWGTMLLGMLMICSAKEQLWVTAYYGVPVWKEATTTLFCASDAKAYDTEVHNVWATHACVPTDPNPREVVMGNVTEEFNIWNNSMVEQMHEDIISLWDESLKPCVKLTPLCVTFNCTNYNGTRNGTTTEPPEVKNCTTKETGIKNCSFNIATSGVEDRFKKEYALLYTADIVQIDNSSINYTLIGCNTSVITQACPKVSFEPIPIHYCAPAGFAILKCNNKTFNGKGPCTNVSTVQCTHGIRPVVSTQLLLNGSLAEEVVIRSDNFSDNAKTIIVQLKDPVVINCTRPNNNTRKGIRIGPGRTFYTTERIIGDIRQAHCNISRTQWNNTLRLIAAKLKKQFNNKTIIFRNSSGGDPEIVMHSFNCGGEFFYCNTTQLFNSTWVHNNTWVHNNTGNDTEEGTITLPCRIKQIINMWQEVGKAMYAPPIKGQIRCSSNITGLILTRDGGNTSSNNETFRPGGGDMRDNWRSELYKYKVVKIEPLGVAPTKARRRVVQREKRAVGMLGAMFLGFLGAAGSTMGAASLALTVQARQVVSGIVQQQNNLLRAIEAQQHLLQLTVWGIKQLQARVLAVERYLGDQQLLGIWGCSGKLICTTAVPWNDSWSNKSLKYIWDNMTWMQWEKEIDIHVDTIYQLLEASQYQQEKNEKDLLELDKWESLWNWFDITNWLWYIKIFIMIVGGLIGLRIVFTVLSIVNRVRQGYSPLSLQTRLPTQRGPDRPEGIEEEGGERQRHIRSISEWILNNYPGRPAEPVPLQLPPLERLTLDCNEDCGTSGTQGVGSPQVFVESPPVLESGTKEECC

[3] = target: T2, Type-1 angiotensin II receptor (Homo sapiens, UniProt P30556); assay: AT1 receptor agonists, dose response, selectivity assay for APJ receptor agonist project, cell-based, uHTS hits (AID 488865); type: functional;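 also: beta-arrestin recruitment to AT1 measured by enzyme fragment complementation luminescence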
T2 sequence (P30556 whole entry): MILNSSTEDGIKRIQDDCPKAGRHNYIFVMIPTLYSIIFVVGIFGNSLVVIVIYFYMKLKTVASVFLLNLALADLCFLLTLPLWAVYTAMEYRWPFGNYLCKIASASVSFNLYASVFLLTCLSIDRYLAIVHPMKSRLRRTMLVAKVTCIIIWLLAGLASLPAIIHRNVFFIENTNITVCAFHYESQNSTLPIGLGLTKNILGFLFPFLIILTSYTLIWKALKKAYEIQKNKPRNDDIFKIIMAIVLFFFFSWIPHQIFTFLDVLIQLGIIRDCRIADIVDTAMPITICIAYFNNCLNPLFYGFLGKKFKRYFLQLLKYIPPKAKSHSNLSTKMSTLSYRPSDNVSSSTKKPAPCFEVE

Cytochrome P450 2C9 = Cytochrome P450 2C9 (Homo sapiens, UniProt P11712)
Sequence of Cytochrome P450 2C9 (P11712 whole entry): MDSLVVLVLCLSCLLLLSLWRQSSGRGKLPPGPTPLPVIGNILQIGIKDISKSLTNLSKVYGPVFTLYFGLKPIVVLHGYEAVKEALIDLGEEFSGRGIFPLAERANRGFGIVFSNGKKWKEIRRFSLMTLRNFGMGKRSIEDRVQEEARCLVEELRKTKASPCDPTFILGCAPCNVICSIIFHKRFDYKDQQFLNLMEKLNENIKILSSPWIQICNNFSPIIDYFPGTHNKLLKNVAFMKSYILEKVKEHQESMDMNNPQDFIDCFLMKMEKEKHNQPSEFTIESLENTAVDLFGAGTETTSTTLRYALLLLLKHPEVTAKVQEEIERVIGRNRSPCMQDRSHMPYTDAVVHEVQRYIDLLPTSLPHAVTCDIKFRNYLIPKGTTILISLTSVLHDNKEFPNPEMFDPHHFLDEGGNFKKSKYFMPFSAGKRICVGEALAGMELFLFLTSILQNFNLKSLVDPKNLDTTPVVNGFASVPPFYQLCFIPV

Phospholipase A2 = Phospholipase A2 (Homo sapiens, UniProt P04054); type: functional;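 also: confirmatory dose-response counterscreen on phospholipase A2, testing hits that came from an ultra-high-throughput screen for ATG4B inhibitors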
Sequence of Phospholipase A2 (P04054 whole entry): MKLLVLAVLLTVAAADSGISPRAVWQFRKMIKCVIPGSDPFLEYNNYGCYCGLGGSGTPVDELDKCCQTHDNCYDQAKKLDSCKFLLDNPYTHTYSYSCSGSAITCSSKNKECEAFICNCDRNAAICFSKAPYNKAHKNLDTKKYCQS

[4] = target: G-protein coupled receptor 55 (Homo sapiens, UniProt Q9Y2T6); assay: GPR55 agonists via beta-arrestin recruitment, primary screen, imaging, U2OS cells, beta-arrestin-GFP redistribution (AID 1961); type: functional
Sequence of G-protein coupled receptor 55 (Q9Y2T6 whole entry): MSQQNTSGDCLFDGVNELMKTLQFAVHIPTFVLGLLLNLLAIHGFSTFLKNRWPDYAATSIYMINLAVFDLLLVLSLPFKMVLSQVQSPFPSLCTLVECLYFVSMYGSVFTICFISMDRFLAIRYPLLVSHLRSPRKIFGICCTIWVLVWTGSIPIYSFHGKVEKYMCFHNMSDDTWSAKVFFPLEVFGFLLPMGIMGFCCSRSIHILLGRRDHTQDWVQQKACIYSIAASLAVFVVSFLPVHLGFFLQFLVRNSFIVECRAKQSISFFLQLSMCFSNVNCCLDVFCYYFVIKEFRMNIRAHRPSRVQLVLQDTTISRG

Cysteine protease ATG4B = target: T3, Cysteine protease ATG4B (Homo sapiens, UniProt Q9Y4P1); type: functional;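 also: Fluorescence-based dose-response confirmation assay measuring inhibition of ATG4B activity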
T3 sequence (Q9Y4P1 whole entry): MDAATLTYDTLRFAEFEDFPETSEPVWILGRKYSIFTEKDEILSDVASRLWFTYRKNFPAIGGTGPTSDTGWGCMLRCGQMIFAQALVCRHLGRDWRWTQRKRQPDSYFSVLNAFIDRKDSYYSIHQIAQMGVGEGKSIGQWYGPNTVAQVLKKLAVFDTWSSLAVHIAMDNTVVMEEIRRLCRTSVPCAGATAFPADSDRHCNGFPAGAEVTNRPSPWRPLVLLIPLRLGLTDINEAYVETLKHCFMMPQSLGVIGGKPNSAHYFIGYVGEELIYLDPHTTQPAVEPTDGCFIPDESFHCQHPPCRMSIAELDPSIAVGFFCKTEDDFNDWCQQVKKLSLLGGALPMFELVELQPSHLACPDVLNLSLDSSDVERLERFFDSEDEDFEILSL

[5] = inhibitors of SNCA 5'UTR-driven reporter translation, confirmation, H4 neuroglioma cells, luminescence (AID 1988); type: functional, cell-based
X-box-binding protein 1 = X-box-binding protein 1 (Homo sapiens, UniProt P17861); type: functional, Cricetulus griseus;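 also: confirmatory dose-response counter-screen serving a CHOP assay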
Sequence of X-box-binding protein 1 (P17861 whole entry): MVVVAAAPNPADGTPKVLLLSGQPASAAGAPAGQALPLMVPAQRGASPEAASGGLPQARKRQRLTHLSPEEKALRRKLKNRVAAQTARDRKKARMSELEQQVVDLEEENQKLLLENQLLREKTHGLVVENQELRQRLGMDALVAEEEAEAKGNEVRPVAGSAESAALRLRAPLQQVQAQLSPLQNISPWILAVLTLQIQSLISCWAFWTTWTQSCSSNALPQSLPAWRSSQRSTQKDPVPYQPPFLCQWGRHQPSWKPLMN

[6] = inhibitors of firefly luciferase expression or activity, dose response, H4 neuroglioma cells, luminescence (AID 1990); type: functional, cell-based

Sequence of Genome polyprotein (P29990 2492-3391 limits assumed): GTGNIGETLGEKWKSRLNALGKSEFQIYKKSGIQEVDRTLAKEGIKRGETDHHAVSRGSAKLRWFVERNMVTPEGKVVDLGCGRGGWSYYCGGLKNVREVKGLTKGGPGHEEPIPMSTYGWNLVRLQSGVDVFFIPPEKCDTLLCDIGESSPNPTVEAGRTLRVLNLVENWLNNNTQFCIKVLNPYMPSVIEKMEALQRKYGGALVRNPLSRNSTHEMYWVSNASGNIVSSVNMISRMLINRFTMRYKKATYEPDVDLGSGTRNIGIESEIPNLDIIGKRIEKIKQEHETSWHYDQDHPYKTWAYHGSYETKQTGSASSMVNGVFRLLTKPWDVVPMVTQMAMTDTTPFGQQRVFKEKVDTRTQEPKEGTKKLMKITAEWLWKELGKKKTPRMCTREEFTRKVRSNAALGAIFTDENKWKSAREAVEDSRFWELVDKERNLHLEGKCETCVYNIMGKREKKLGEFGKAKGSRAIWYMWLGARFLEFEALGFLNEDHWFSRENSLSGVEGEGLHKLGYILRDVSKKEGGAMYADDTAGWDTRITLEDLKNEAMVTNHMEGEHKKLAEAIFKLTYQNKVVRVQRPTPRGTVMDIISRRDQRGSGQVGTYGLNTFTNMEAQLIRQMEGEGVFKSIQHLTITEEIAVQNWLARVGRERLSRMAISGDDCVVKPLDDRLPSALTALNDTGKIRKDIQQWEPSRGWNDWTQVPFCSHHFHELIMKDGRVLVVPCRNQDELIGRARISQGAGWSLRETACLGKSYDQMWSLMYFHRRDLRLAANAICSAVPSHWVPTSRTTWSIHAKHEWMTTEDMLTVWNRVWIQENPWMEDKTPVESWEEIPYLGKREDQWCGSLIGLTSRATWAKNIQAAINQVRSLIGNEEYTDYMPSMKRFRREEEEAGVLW

CN1C(=O)/C(=C/c2ccc(C(=O)Nc3ccc(O)cc3C(=O)O)cc2)SC1=S
IC50 (Genome polyprotein): 31.8 µM (active)
IC50 [1]: 55.1 µM (active)
IC50 [2]: 11.3 µM (active)

CC1CCN(S(=O)(=O)c2ccc3nc(N4CCN(c5ccccc5)CC4)ccc3c2)CC1
EC50 [3]: > 100 µM (inactive)

COc1cc(/C=C2/C(=N)N3C=CSC3=NC2=O)ccc1OCCCOc1c(C)cccc1C
AC50 (Cytochrome P450 2C9): 2 µM (inconclusive)
IC50 (Phospholipase A2): 3.11 µM (active)
EC50 [4]: 4.7 µM (active)
IC50 (Cysteine protease ATG4B): 7.86 µM (active)

CC(C)Cn1c(=O)c2ccccc2n2c(SCC(=O)N3c4ccccc4CC3C)nnc12 (stereo unspecified)
EC50 [5]: > 120 µM (not active)
Absolute IC50 (XBP1) (X-box-binding protein 1): 10 µM
EC50 [6]: 36 µM (active)
